Reference: patent publication US20230068020A1, “MACROLIDE COMPOUND AND ITS USE OF TREATMENT CHRONIC RESPIRATORY DISEASE” (priority 2020, published 2023)
≈ marks a conversion by molar mass, not a printed value.

Columns and labels:
[1] = male, Sprague-Dawley, rat, in vivo, po, 100 mg/kg
Protocol: (§4) In another study, a single intravenous dose of two compounds was given to rats (N=3) at 30 mg/ml dosage following administration through the lateral tail vein in order to obtain the absolute oral bioavailability and clearance parameters. Compounds (10 mg/mL) was dissolved in 30% DMSO for IV injection and suspended in 0.5% CMC-Na for IG respectively.

in vivo = settings: Sprague-Dawley, rat
Protocol: as §4

[2] = test system: Acinetobacter baumanii ATCC 17978; assay: Antibacterial activity, agar dilution MIC; format: cell-based; settings: Acinetobacter baumannii, ATCC17978, 20-24 hrs incubation, read-out: minimum inhibitory concentration MIC
Protocol: (§1) The antibacterial activity of Erythromycin and compounds of examples were evaluated by the agar dilution method, following the guidelines of the CLSI. […] Briefly, bacteria were grown overnight in adapted media (MHIIA with 5% of sheep blood for Streptococcus pneumoniae and Haemophilus influenzae, and MHIIA for the other bacteria strains) at 35° C., 5% CO2.
(§2) Cultures were centrifuged at 3000×g for 15 min. Pellets were diluted with 5 mls cold PBS and the OD600nm was adjusted to 10^8 CFU.mL^−1 with a spectrometer. Bacteria were then added to 96-well test plates. Compounds were diluted in DMSO in a 2 fold steps from 20 mg/ml in DMSO in 96 well plated and transferred to the test plate. During the incubation, the plate was maintained at 35° C., 5% CO2.
(§3) The MICs for Erythromycin and compounds of examples were determined after 20-24 hrs incubation.

[3] = test system: Acinetobacter baumannii ATCC-BAA-1605; assay: Antibacterial activity, agar dilution MIC; format: cell-based; settings: ATCCBAA1605, 20-24 hrs incubation, read-out: minimum inhibitory concentration MIC
Protocol: as §1, §2, §3

[4] = test system: Staphylococcus aureus ATCC 29213; assay: Antibacterial activity, agar dilution MIC; format: cell-based; settings: ATCC29213, 20-24 hrs incubation, read-out: minimum inhibitory concentration MIC
Protocol: as §1, §2, §3

[5] = test system: Haemophilus influenzae ATCC 49247; assay: Antibacterial activity, agar dilution MIC; format: cell-based; settings: ATCC49247, 20-24 hrs incubation, read-out: minimum inhibitory concentration MIC
Protocol: as §1, §2, §3

[6] = test system: Streptococcus pneumoniae ATCC 6301; assay: Antibacterial activity, agar dilution MIC; format: cell-based; settings: ATCC6301, 20-24 hrs incubation, read-out: minimum inhibitory concentration MIC
Protocol: as §1, §2, §3

[7] = test system: Streptococcus pyogenes ATCC BAA-572; assay: Antibacterial activity, agar dilution MIC; format: cell-based; settings: ATCCBAA572, 20-24 hrs incubation, read-out: minimum inhibitory concentration MIC
Protocol: as §1, §2, §3

[8] = test system: Staphylococcus aureus NRS 384; assay: Antibacterial activity, agar dilution MIC; format: cell-based; settings: NRS384, 20-24 hrs incubation, read-out: minimum inhibitory concentration MIC
Protocol: as §1, §2, §3

[9] = test system: Moraxella catarrhalis ATCC 43617; assay: Antibacterial activity, agar dilution MIC; format: cell-based; settings: ATCC43617, 20-24 hrs incubation, read-out: minimum inhibitory concentration MIC
Protocol: as §1, §2, §3

[10] = test system: Enterococcus faecalis ATCC 29212; assay: Antibacterial activity, agar dilution MIC; format: cell-based; settings: ATCC29212, 20-24 hrs incubation, read-out: minimum inhibitory concentration MIC
Protocol: as §1, §2, §3

[11] = test system: IL-8 expression in BEAS-2B cell; assay: LPS induced IL-8 release by BEAS-2B (ELISA); format: cell-based; settings: in words; BEAS-2B
Protocol: The inhibitory effect of compounds of Examples on the IL-8 expression in BEAS-2B cell was tested using the following method. BEAS-2B was purchased from ATCC (American Type Culture Collection, Manassas, Va.). Cells were maintained in growth medium (LHC-9) and cultured at 37° C. under 5% CO2. Compounds were dissolved in 0.1% DMSO. Erythromycin was used as a positive control.
For the assessment of the effect of compounds of Examples on IL-8 expression inhibition in BEAS-2B cell line, cells were plated in 24 well plate at a density of 100,000/mL, in a final volume of 1 mL of assay medium. Cells were incubated at 37° C., 5% CO2 for 1 day. After the incubation, compounds were added at day 2 and LPS was added at day 3. A compound source plate was prepared by triplicate five-point 10-fold or 2-fold serial dilutions in DMSO, beginning at 1 mM (final top concentration of compounds of Examples in the assay was 100 μM and the DMSO was 0.1%). The positive control consisted of cells treated with 100 μM erythromycin and negative control was consisted of 0.1% DMSO treated cells. LPS stock solution at 5 mg/mL was made by dissolving 10 mg of LPS powder into 2 mL of ddH2O and aliquoted to 100 μL per vial. Final concentration of LPS in the assay was […] by making 125-fold dilution of stock solution with medium.
Specific immunoreactivity for IL-8 in culture supernatants were measured by a commercially available ELISA kits (R&D Systems, Inc., Minneapolis, Minn.). Each sample was assayed in duplicates as recommended by the manufacture. The concentration of compounds of Examples inhibiting IL-8 production on BEAS-2B by 10% was estimated from a 4-parametric of the normalized dose response curve. (IC10)

THP-1 cell = assay: Differentiation of monocyte to macrophage in THP-1 cell line; format: cell-based; settings: in words
Protocol: The THP-1 cell line was purchased from ATCC (American Type Culture Collection, Manassas, Va.). Cells were maintained in growth medium (RPMI-1640) with supplemented with 10% heat inactivated bovine serum, 100× Glutamax medium and 0.05 mM β-Mercaptoethanol at 37° C. under 5% CO2. Compounds were dissolved in 0.1% DMSO. Erythromycin was used as a positive control.
For the assessment of the effect of compounds of the present invention on differentiation of monocyte to macrophage in THP-1 cell line, cells were collected and centrifuged at 900 rpm for 4 minutes. The cell density was adjusted to 2.5×10^5/mL. cell suspension of 400 μL was added to each well of 48-well plate following the plate layout. PMA 1 mg, a compound can induce monocyte differentiation, was dissolved in 10 mL DMSO to form 100 μg/mL solution and aliquote it into 1 mL per vial. 1 mL solution can be further aliquoted into 10 μL per vial and stored the aliquots at −20° C. Make 10-fold dilution of PMA with DMSO and then 500-fold dilution with complete medium. 50 μL solution were then added to each well of 48-well plate following the plate layout. Erythromycin and compounds of examples at stock concentration of 10 mM was serially diluted at 10-fold in DMSO. 50 μL solution was added to each well of 48-well plate following the plate layout. After 96 hrs incubation at 37° C., 5% CO2, the plate was washed with DPBS for three times to remove non-adherent cells for three times. Complete medium 180 μL and alarmar blue 20 μL was added to each well. The fluorescent intensity was read at excitation 530 nm and emission 590 nm using PerkinElmer Victor3 after 3 hours plate incubation.
The differentiation activity of compounds of Examples is compared to that of 100 μM erythromycin and the results are shown in FIG. 1 and Table 3.

Compound `CC[C@H]1OC(=O)[C@H](C)[C@@H](O[C@H]2C[C@@](C)(OC)[C@@H](O)[C@H](C)O2)[C@H](C)[C@@H](O[C@@H]2O[C@H](C)C[C@H](N(C)C)[C@H]2O)[C@](C)(O)C[C@@H](C)C(=O)[C@H](C)[C@@H](O)[C@]1(C)O` [Erythromycin, reference compound] has an F [1] of 21.8%, a clearance (in vivo; iv) of 50.2 mL/min/kg and an AUC(0-inf) (in vivo; male, po, 100 mg/kg) of 7250 ng·h/mL. It also gave an AUC(0-t) (in vivo; male, po, 100 mg/kg) of 7240 ng·h/mL, a Cmax (in vivo; male, po, 100 mg/kg) of 2530 ng/mL and a Tmax (in vivo; male, po, 100 mg/kg) of 2 h. It also gave a half-life (in vivo; male, po, 100 mg/kg) of 55.8 min, an MIC [2] of 64 µg/mL (≈ 87.2 µM) and an MIC [3] of 16 µg/mL (≈ 21.8 µM). For the same compound, the MIC [4] was 0.5 µg/mL (≈ 0.681 µM), the MIC [5] was 16 µg/mL (≈ 21.8 µM) and the MIC [6] was under 0.125 µg/mL. The MIC [7] was under 0.125 µg/mL, the MIC [8] was 64 µg/mL (≈ 87.2 µM) and the MIC [9] was 2 µg/mL (≈ 2.73 µM). For the same compound, the MIC [10] was 1 µg/mL (≈ 1.36 µM), the “LPS-induced IL-8 release” value [11] was “significantly inhibited” and the “effect on THP-1 cell differentiation” value (THP-1 cell) was “promotional effect on THP-1 cell differentiation in a dose dependent manner”.
